“Also recorded” adds a separate entry of the source.
Key:
MAO-A = target: T1, MAO-A (Rattus norvegicus, UniProt P21396); assay: In vitro MAO-A enzyme activity assay (radioenzymatic, 14C-serotonin) in rat brain mitochondria; format: biochemical
T1 construct: of the invention in rat brain mitochondria; from tissue; host or cells: rat brain, crude mitochondrial fraction (male Wistar rats)
T1 sequence (P21396 1-526): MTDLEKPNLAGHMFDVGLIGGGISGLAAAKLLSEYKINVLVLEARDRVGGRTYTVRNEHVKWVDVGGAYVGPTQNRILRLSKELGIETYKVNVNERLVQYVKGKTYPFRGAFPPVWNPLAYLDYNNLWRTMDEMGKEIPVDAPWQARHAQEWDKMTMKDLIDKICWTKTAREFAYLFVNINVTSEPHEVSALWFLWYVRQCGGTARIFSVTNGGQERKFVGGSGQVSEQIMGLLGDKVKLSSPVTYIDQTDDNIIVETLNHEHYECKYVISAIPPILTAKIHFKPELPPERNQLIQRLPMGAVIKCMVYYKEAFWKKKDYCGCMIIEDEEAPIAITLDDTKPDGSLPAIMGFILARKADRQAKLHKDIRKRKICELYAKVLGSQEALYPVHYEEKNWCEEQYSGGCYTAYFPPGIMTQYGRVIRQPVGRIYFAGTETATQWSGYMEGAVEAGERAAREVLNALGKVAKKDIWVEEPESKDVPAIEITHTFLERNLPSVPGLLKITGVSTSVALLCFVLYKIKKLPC
Protocol: (§1) In Vitro MAO-A and MAO-B Enzyme Activities Assay
(§2) —Membrane Preparations (Crude Mitochondrial Fraction)
(§3) The crude homogenate was centrifuged at 2220 rpm for 10 minutes at +4° C. and the supernatant recovered. The pellet was homogenized and centrifuged again. The two supernatants were pooled and centrifuged at 9250 rpm for 10 minutes. The pellet was resuspended in fresh buffer and centrifuged at 11250 rpm for 10 minutes at +4° C. The resulting pellet was stored at −80° C.
(§4) —In Vitro Enzyme Activities Assay
(§5) The enzyme activities were assessed with a radioenzymatic assay using the substrates ^14C-serotonin (5-HT) and ^14C-phenylethylamine (PEA) for MAO-A and MAO-B, respectively.
(§6) The mitochondrial pellet (500 μg protein) was resuspended in 0.1 M phosphate buffer (pH 7.4). 500 μl of the suspension were added to a 50 μl solution of the test compound or buffer, and incubated for 30 min at 37° C. (preincubation) then the substrate (50 μl) was added. The incubation was carried out for 30 minutes at 37° C. (^14C-5-HT, 5 μM) or for 10 minutes at 37° C. (^14C-PEA, 0.5 μM).
(§7) After centrifugation, the deaminated metabolites were extracted with 3 ml of diethyl ether (5-HT) or toluene (PEA) and the radioactive organic phase was measured by liquid scintillation spectrometry at 90% efficiency. The amount of neutral and/or acidic metabolites formed as a result of MAO activity was obtained by measuring the radioactivity of the eluate.
(§8) The activity of MAO in the sample, corresponding to a percentage of radioactivity compared with the control activity in the absence of the inhibitor, was expressed as nmoles of substrate transformed/mg protein/min.
(§9) The drug inhibition curves were obtained from at least eight different concentration points, each in duplicate (10^−10 to 10^−5 M).

MAO-B = target: T2, MAO-B (Rattus norvegicus, UniProt P19643); assay: In vitro MAO-B enzyme activity assay (radioenzymatic, 14C-phenylethylamine) in rat brain mitochondria; format: biochemical
T2 construct: of the invention in rat brain mitochondria; from tissue; host or cells: rat brain, crude mitochondrial fraction (male Wistar rats)
T2 sequence (P19643 1-520): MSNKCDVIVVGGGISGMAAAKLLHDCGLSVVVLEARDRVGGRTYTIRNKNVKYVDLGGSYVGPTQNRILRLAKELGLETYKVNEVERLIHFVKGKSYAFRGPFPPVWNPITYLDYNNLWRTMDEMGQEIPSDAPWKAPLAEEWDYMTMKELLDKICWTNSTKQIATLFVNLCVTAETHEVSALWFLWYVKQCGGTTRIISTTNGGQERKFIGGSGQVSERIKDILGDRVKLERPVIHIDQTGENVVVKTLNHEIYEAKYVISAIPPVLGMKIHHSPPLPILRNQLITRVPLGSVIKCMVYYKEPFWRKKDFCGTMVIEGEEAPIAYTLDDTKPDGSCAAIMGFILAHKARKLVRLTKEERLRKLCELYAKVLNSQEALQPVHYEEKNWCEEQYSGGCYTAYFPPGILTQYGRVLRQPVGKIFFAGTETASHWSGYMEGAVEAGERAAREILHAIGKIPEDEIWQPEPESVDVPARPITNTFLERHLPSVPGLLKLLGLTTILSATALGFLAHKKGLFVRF
Protocol: as §1, §2, §3, §4, §5, §6, §7, §8, §9

[1] = test system: mouse closed head injury model; conditions: 1 mg/kg; cited from earlier work
[2] = test system: rat photo-oxidative induced retinopathy model; assay: Rat photo-oxidative induced retinopathy model (blue-light exposure; ERG and retinal morphology); format: in vivo; conditions: for Maximum ERG a-wave responses, % of normal: 5 days after 6-hour blue-light exposure
Protocol: Neuroprotective Activity of MAO Inhibitors in the Rat Photo-Oxidative Induced Retinopathy Model
Prevention of Photo-oxidative injury with Safinamide: The efficacy of Safinamide, a short acting MAO-B inhibitor, to protect retinal cells against the induction of photochemical lesions by blue-light exposure was assessed by measuring light-induced changes in retinal functioning (electroretinogram (ERG)) and evaluating retinal morphology changes.
Subjects. Male Sprague Dawley rats were randomly assigned to drug or vehicle experimental groups. Rats receiving vehicle (N=15) or drug treatment (Safinamide: 5 mg/kg, N=10; 15 mg/kg, N=10; 30 mg/kg, N=10; and 60 mg/kg, N=9) were pre-dosed (IP) at 48, 24 and 0 hours prior to a 6-hour light exposure (spectrally filtered blue light (˜220 fc)) and 24 and 48 hours after light exposure. Control rats were housed in their home cage under normal cyclic light exposure. Control rats were not dosed with either vehicle or drug.
Retinal Function Assessment. The ERG is a non-invasive clinical measurement of the electrical response of the eye to a flash of light. The a-wave and b-wave are two components of the ERG that are diagnostic of retinal function. The a-wave reflects outer retina function and is generated by interactions between photoreceptor and RPE while the b-wave reflects inner retina function, particularly on-bipolar cells. […] Changes in the a-wave amplitude or latency are diagnostic of outer retina pathology. The ERG was recorded after a five day recovery period from dark-adapted anesthetized rats (ketamine-HCl, 75 mg/Kg; xylazine, 6 mg/Kg). The eye's electrical response to a flash of light was elicited by viewing a ganzfeld. ERGs to a series of light flashes increasing in intensity were digitized to analyze temporal characteristics of the waveform and response voltage-log intensity relationship.
Light Microscopic Assessment of Retinal Lesions. Ocular tissues were fixed in a mixture of paraformaldehyde and glutaraldehyde, dehydrated in an ascending ethanol series, embedded in JB-4 plastic resin, and 1 to 1.5-micron thick sections were analyzed using a quantitative computer image analysis system attached to the microscope. Retinal Pigment Epithelium (RPE), Outer Nuclear Layer (ONL) and Inner to Nuclear Layer (INL) thickness as well as the length of inner segments (IS), where mitochondria are located, and outer segments (OS), which contain the light sensitive photopigment, were measured to assess outer retina protection.

[3] = test system: rat photo-oxidative induced retinopathy model; assay: as above; format: in vivo; conditions: 15 to 60 mg/kg IP, 1-month recovery period
[4] = test system: light-induced functional or morphological changes; assay: Light damage paradigms used by the present inventors; format: in vivo
[5] = 15 and 60 mg/kg, light microscopy

SMILES	IC50 (MAO-A)	IC50 (MAO-B)	other results
CN(CC(N)=O)Cc1ccc(OCc2cccc(Cl)c2)cc1 [2-{[4-(3-Chloro-benzyloxy)-benzyl]-methyl-amino}-acetamide]	50000 nM	40 nM	
NC(=O)[C@@H](CO)NCc1ccc(OCc2cccc(Cl)c2)cc1 [(R)-2-[4-(3-Chloro-benzyloxy)-benzylamino]-3-hydroxy-propionamide]	> 100000 nM	110 nM	
C[C@H](NCc1ccc(OCC2CCCCC2)cc1)C(N)=O [(S)-2-(4-Cyclohexylmethoxy-benzylamino)-propionamide]	301000 nM	30 nM	
C[C@H](NCc1ccc(OCc2ccccc2F)cc1)C(N)=O [(S)-2-[4-(2-Fluoro-benzyloxy)-benzylamino]-propionamide]	228000 nM	180 nM	
NC(=O)[C@H](CO)NCc1ccc(OCc2cccc(Cl)c2)cc1 [(S)-2-[4-(3-Chloro-benzyloxy)-benzylamino]-3-hydroxy-propionamide]	84000 nM	40 nM	
C[C@H](NCc1ccc(OCc2cccc(Cl)c2)cc1)C(N)=O [(S)-2-[4-(3-Chloro-benzyloxy)-benzylamino]-propionamide]	114000 nM	30 nM	
NC(=O)[C@H](CO)NCc1ccc(OCc2cccc(F)c2)cc1 [(S)-2-[4-(3-Fluoro-benzyloxy)-benzylamino]-3-hydroxy-propionamide]		140 nM	
C[C@H](NCc1ccc(OCc2ccc(F)cc2)cc1)C(N)=O [(S)-2-[4-(4-Fluoro-benzyloxy)-benzylamino]-propionamide]	93000 nM	60 nM	
C[C@@H](C(N)=O)N(C)Cc1ccc(OCc2cccc(Cl)c2)cc1 [(S)-2-{[4-(3-Chloro-benzyloxy)-benzyl]-methyl-amino}-propionamide]	82000 nM	60 nM	
C#CCN[C@@H]1CCc2ccccc21 [Rasagiline]			cerebral edema reduction [1]: 40-50%
C[C@H](NCc1ccc(OCc2cccc(F)c2)cc1)C(N)=O [Safinamide, (S)-2-[4-(3-Fluoro-benzyloxy)-benzylamino]-propionamide]	584000 nM	90 nM	Maximum ERG a-wave responses, % of normal ([2]; 5 mg/kg IP): 52 % of normal; Maximum ERG a-wave responses, % of normal ([2]; 15 mg/kg IP): greater than 70 % of normal; Maximum ERG a-wave responses, % of normal ([2]; 30 mg/kg IP): greater than 70 % of normal; Retinal responses (ERG) compared to control rats ([2]; 60 mg/kg IP, 5 days after blue-light exposure): not significantly diminished compared to control rats; photoreceptor segment length compared to vehicle-dosed rats ([2]; 60 mg/kg, light microscopy): significantly longer; retinal lesions ([2]; 60 mg/kg, light microscopy): devoid of any significant retinal lesions; retinal lesions ([2]; 60 mg/kg, light microscopy, listed as safinamide): devoid of significant retinal lesions; ERG (retinal function) protection compared to vehicle-dosed rats ([2]; 5-60 mg/kg IP, 5-day recovery period): Significant dose-dependent protection of retinal function; also recorded: significant ERG protection; ONL thickness compared to vehicle-dosed rats [2, 5]: significantly thicker; RPE thickness compared to vehicle-dosed rats [2, 5]: thicker RPE compared to vehicle-dosed rats; reduction in retinal lesions across doses ([2]; light microscopy, all doses): Dose-dependent reduction in retinal lesions; ERG a- and b-wave function after 1-month recovery [3]: not significantly different from normal; also recorded: normal ERG a- and b-wave function; ERG a- and b-wave function after 1-month recovery ([3]; listed as safinamide): significant and complete retinal function protection
Fc1ccc(C(c2ccc(F)cc2)N2CCN(C/C=C/c3ccccc3)CC2)cc1 [flunarizine]			preventing light-induced functional or morphological changes [4]: moderately effective
COCCOC(=O)C1=C(C)NC(C)=C(C(=O)OC(C)C)C1c1cccc([N+](=O)[O-])c1 (stereo not drawn) [nimodipine]			preventing light-induced functional or morphological changes [4]: no effect
Cc1c(C)c2c(c(C)c1O)CC[C@@](C)(CCC[C@H](C)CCC[C@H](C)CCCC(C)C)O2 [α-tocopherol]			preventing light-induced functional or morphological changes [4]: ineffective

Source: patent publication US20110160308A1, “Use of Monoamine Oxidase Inhibitors to Treat Outer Retina Disorders” (ALCON RESEARCH, LTD., priority 2006, published 2011)
